Data taken from US20030119895A1, “Methods using a combination of a 3-heteroaryl-2-indolinone and a cyclooxygenase-2 inhibitor for the treatment of neoplasia” (Pharmacia Corporation, priority 1998, published 2003).
Values joined by “and” are separate entries in the source; they are usually repeats but may differ in a detail not shown here. Identical values can stand only once.

Experiments:
[1] = tested on: 3T3/E/H+TGF-a(T) (NIH 3T3 cells expressing EGFR/HER2 chimera and TGF-a); assay: SRB Assay 1: 3T3/E/H+TGF-a(T) Cell Growth SRB Assay; type: cell-based; details: Mus musculus, NIH3T3, SRB Readout
[2] = tested on: HUV-EC-C cells (human umbilical vein endothelial cells); assay: HUV-EC-C Assay, a-FGF (ECGF)-stimulated [3H] thymidine incorporation; type: cell-based; details: Homo sapiens, HUVEC, Mitogenesis in Endothelial Cells
Description: The following protocol may also be used to measure the composition's activity:
1. […] After cells have detached from the flask, add an equal volume of assay medium and transfer to a 50 ml sterile centrifuge tube (Fisher Scientific; catalogue no. 05-539-6).
2. Wash the cells with about 35 ml assay medium in the 50 ml sterile centrifuge, tube by adding the assay medium, centrifuge for 10 minutes at approximately 200× g, aspirate the supernatant, and resuspend with 35 ml D-PBS. Repeat the wash two more times with D-PBS, resuspend the cells in about 1 ml assay medium/15 cm^2 of tissue culture flask. Assay medium consists of F12K medium (Gibco BRL; catalogue no. 21127-014)+0.5% heat-inactivated fetal bovine serum. Count the cells with a Coulter Counter.RTM.v Coulter Electronics, Inc.) and add assay medium to the cells to obtain a concentration of 0.8-1.0×10^5 cells/ml.
3. Add cells to 96-well flat-bottom plates at 100 μl/well or 0.8-1.0×10^4 cells/well; incubate about 24 h at 37° C., 5% CO2.
1. Make up two-fold drug titrations in separate 96-well plates, generally 50 μM on down to 0 μM. Use the same assay medium as mentioned in day 0, step 2 above. Titrations are made by adding […] of drug at 200 μM (4× the final well concentration) to the top well of a particular plate column. Since the stock drug concentration is usually 20 mM in DMSO, the 200 μM drug concentration contains 2% DMSO. Therefore, diluent made up to 2% DMSO in assay medium (F12K+0.5% fetal bovine serum) is used as diluent for the drug titrations in order to dilute the drug but keep the DMSO concentration constant. Add this diluent to the remaining wells in the column at 60 μl/well. Take 60 μl from the 120 μl of 200 μM drug dilution in the top well of the column and mix with the 60 μl in the second well of the column. Take 60 μl from this well and mix with the 60 μl in the third well of the column, and so on until two-fold titrations are completed. When the next-to-the-last well is mixed, take 60 μl of the 120 μl in this well and discard it. Leave the last well with 60 μl of DMSO/media diluent as a non-drug-containing control. Make 9 columns of titrated drug, enough for triplicate wells each for 1) VEGF (obtained from Pepro Tech Inc., catalogue no. 100-200, 2) endothelial cell growth factor (ECGF) (also known as acidic fibroblast growth factor, or aFGF) (obtained from Boehringer Mannheim Biochemica, catalogue no. 1439 600), and assay media control. ECGF comes as a preparation with sodium heparin.
2. Transfer 50 μl/well of the drug dilutions to the 96-well assay plates containing the 0.8-1.0×10^4 cells/100 μl/well of the HUV-EC-C cells from day 0 and […] incubate ~2 h at 37° C., 5% CO2.
3. In triplicate, add 50 μl/well of 80 ng/ml VEGF, 20 ng/ml ECGF, or media control to each drug condition. As with the drugs, the growth factor concentrations are 4× the desired final concentration. Use the assay media from day 0 step 2 to make the concentrations of growth factors. Incubate approximately 24 hours at 37° C., 5% CO2. Each well will have 50 μl drug dilution, 50 μl growth factor or media, and 100 ul cells,=200 ul/well total. Thus the 4× concentrations of drugs and growth factors become 1× once everything has been added to the wells.
1. Add ^3H-thymidine (Amersham; catalogue no. TRK-686) at 1 μCi/well (10 μl/well of 100 μCi/ml solution made up in RPMI media+10% heat-inactivated fetal bovine serum) and incubate about 24 h at 37° C., 5% CO2.
Note: ^3H-thymidine is made up in RPMI media because all of the other applications for which we use the ^3H-thymidine involve experiments done in RPMI. The media difference at this step is probably not significant. RPMI was obtained from Gibco BRL, catalogue no. 11875-051.
1. Freeze plates overnight at −20° C.
1. Thaw plates and harvest with a 96-well plate harvester (Tomtec Harvester 96.RTM.) onto filter mats (Wallac; catalogue no. 1205-401); read counts on a Wallac Betaplate™ liquid scintillation counter.

[3] = tested on: HUV-EC-C cells (human umbilical vein endothelial cells); assay: HUV-EC-C Assay, VEGF-stimulated [3H] thymidine incorporation; type: cell-based; details: Homo sapiens, HUVEC, Mitogenesis in Endothelial Cells
[4] = tested on: EpH4-VEGF; assay: Xenograft Assay 2: FLK-1/Xenograft Model, subcutaneous xenograft (In Vivo Data, EpH4-VEGF); set-up: species or system mice
Description: Assay 2: FLK-1/Xenograft Model
The ability of the compounds of the present invention to inhibit ovarian, melanoma, prostate, lung and mammary tumor cell lines established as SC xenografts was examined. These studies were conducted using doses ranging from 1 to 75 mg/kg/day.
Materials And Methods. The tumor cells were implanted subcutaneously into the indicated strains of mice. Treatment was initiated on day 1 post implantation unless otherwise indicated (e.g. treatment of the SCID mouse related to the A375 melanoma cell line began on Day 9). Eight (8) to sixteen (16) mice comprised each test group.
Animals. Female athymic mice (BALB/c, nu/nu), BALB/c mice, Wistar rats and Fisher 344 rats were obtained from Simonsen Laboratories (Gilroy, Calif.). Female A/I mice were obtained from Jackson Laboratory (Bar Harbor, Me.). DA rats were obtained from B&K Universal, Inc. (Fremont, Calif.). Athymic R/Nu rats, DBA/2N mice, and BALB/c mice were obtained from Harlan Sprague Dawley (Indianapolis, Ind.). Female C57BU6 mice were obtained from Taconic (Germantown, N.Y.). All animals were maintained under clean-room conditions in Micro-isolator cages with Alpha-dri bedding. They received sterile rodent chow and water ad libitum.
All procedures were conducted in accordance with the NIH Guide for the Care and Use Of Laboratory Animals.
Subcutaneous Xenograft Model. Cell lines were grown in appropriate medium as described. Cells were harvested at or near confluency with 0.05% Trypsin-EDTA and pelleted at 450×g for 10 min. Pellets were resuspended in sterile PBS or media (without FBS) to a suitable concentration indicated in the Figure legends and the cells were implanted into the hindflank of mice. Tumor growth-was measured over 3 to 6 weeks using venier calipers and tumor volumes were calculated as a product of length x width x height unless otherwise indicated. P values were calculated using the Students' t-test.
Different concentrations of a compound in 50-100 μl excipient (dimethylsulfoxide, PBTE, PBTE6C:D5W, or PBTE:D5W) were delivered by IP injection.
Results for various compounds obtained from the above-described in vivo assays are set forth at Table 5, below: […]

[5] = molecular target: T1, PDGFR (Homo sapiens, UniProt P09619); assay: PDGF-R ELISA (U1242 cells); type: cell-based; details: ELISA Assay Results
T1 construct: other: ELISA Assay Results; U1242 cells

[6] = tested on: 3T3/PDGF-βR/PDGF-BB(T) (NIH 3T3 cells expressing PDGFβ-receptor and PDGF-BB); assay: SRB Assay 3: 3T3/PDGF-βR/PDGF-BB(T) Cell Growth SRB Assay; type: cell-based; details: Mus musculus, NIH3T3, SRB Readout, read-out: 3T3/PDGFR + PDGF (T) IC50
Description: Assay 3: 3T3/PDGF-βR/PDGF-BB(T) Cell Growth SRB Assay
Cell line and growth medium:
3T3/PDGF-βR/PDGF-BB(T) (NIH 3T3 clone 7 cells expressing PDGFβ-receptor and PDGF-BB, from tumors resected from athymic mice) 2% calf serum/DMEM+2 mM glutamine
This part of assay is carried out in a laminar flow hood.
1. Trypsinize cells as usual. Transfer 200 μl of cell suspension to 10 ml of isotone. Count cells on the Coulter Counter.
2. Dilute cells in growth medium to 60,000 cells/ml. Transfer 100 μl of cells to each well in a 96-well flat bottom plate to give 6000 cells/well.
3. Allow half of plate (4 rows) for each compound and quadruplicate wells for each compound concentration, a set of 4 wells for medium control and 4 wells for DMSO control.
4. Gently shake plates to allow for uniform attachment of the cells to the plate.
5. Incubate the plates at 37° C. in a 10% CO2 incubator.
Day 1: Addition of Compound: same as for Assay 1.
Day 5: Development of Assay: same as for Assay 1.
3T3/E/H+TGF-α(T): NIH 3T3 cells expressing EGFR/HER2 chimera and TGF-α, tumor-derived 3T3/EGFR+TGF-α(T): NIH 3T3 cells expressing EGFR and TGF-α, tumor-derived 3T3/PDGFR+PDGF(T): NIH 3T3 cells expressing PDGF-βR and PDGF-ββ, tumor-derived SMC: human smooth muscle cells from Clonetics

[7] = molecular target: T2, HER2 kinase (Homo sapiens, UniProt P04626); assay: HER-2 ELISA Assay 1: EGF Receptor-HER2 Chimeric Receptor Assay In Whole Cells; type: cell-based; details: ELISA Assay Results
T2 construct: fused on or other part: The EGFR extracellular domain serves for EGF stimulation and for capture by mAb 05-101; The HER2 part carries the kinase domain; P00533 (Epidermal growth factor receptor)

[8] = molecular target: T3, FLK-1 receptor (Mus musculus, UniProt P35918); assay: FLK-1 ELISA (kinase activity of the FLK-1 receptor in FLK-1/NIH3T3 cells); type: cell-based; details: ELISA Assay Results, VEGF stimulation
T3 construct: expressed in transfected cells; host or cells: NIH3T3 C7#3 (FLK-1/NIH3T3)

[9] = tested on: fibroblast growth factor-induced corneal angiogenesis; details: rats; cited from earlier work

T2 sequence (P04626 720-987 limits assumed): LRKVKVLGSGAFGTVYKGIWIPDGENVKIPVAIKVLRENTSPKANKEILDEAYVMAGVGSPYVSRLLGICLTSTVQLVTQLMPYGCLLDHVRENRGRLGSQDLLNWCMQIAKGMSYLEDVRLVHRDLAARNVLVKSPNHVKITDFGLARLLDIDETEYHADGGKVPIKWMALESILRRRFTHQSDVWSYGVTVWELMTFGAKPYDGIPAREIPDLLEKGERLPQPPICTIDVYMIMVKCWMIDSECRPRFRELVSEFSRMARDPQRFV
T1 sequence (P09619 33-1106): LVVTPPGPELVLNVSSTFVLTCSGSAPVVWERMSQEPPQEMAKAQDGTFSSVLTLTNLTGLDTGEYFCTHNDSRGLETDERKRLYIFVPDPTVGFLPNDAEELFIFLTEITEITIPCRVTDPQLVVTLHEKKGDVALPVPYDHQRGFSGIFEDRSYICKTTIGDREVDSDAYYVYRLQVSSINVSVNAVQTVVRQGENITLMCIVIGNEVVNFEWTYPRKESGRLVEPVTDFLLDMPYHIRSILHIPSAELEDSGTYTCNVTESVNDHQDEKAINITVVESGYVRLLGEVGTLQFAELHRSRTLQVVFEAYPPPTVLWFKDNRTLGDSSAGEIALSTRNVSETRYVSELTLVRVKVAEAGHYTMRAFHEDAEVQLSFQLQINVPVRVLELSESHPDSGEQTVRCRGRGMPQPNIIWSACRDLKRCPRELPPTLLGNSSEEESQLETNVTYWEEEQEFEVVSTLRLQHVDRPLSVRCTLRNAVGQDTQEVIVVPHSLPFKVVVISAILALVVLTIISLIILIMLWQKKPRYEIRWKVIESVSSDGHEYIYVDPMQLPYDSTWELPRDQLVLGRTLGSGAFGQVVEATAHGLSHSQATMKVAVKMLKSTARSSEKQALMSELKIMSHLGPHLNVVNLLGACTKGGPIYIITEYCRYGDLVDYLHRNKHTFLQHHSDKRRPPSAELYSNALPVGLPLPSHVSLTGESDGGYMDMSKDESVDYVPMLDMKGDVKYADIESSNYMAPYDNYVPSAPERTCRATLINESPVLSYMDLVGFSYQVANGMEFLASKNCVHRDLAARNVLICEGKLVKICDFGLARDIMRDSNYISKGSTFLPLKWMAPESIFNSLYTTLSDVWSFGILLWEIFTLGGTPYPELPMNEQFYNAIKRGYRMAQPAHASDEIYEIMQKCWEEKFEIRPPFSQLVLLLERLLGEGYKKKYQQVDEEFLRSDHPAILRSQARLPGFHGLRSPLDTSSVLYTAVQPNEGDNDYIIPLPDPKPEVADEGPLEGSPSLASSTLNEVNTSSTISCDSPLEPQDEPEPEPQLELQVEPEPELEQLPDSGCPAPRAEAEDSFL
T3 sequence (P35918 20-1345): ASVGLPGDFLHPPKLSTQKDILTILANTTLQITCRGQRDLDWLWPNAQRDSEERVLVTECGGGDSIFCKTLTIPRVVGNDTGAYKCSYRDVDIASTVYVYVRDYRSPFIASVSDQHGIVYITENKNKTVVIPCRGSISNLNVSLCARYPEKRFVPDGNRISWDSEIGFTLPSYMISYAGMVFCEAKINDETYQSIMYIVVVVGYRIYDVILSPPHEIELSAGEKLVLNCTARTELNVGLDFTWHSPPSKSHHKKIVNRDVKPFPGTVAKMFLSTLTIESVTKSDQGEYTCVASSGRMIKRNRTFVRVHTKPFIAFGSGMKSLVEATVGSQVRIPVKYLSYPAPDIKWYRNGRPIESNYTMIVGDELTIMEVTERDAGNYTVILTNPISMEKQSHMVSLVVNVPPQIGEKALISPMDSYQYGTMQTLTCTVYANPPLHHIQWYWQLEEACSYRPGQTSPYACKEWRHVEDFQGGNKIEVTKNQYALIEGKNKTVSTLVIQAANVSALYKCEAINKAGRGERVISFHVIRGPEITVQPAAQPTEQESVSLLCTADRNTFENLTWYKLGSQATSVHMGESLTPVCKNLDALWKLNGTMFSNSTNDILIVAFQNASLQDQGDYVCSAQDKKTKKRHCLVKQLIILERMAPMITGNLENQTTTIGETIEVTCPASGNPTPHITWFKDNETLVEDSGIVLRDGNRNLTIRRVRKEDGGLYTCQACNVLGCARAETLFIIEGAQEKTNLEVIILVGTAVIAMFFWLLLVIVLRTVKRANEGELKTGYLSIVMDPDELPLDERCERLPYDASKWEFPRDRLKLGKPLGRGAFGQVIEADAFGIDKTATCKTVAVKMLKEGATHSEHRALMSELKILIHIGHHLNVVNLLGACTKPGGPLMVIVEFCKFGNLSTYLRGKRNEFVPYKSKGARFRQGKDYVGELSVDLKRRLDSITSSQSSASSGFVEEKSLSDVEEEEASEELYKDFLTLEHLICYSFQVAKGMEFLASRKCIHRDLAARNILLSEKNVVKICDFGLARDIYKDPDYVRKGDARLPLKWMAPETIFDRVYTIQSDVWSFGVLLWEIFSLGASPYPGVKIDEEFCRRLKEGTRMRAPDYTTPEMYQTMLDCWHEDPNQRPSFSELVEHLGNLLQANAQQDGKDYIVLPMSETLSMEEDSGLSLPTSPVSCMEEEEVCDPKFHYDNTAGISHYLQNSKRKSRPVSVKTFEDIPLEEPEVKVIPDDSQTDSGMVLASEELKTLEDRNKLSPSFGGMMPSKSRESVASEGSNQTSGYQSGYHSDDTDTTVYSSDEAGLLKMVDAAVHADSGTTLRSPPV

IC50 [3] [µM]	IC50 [5] [µM]	Compound	IC50 [1] [µM]	IC50 [2] [µM]	EpH4-VEGF % inhibition @ mg/kg ([4]; @ 50 mg/kg) [% @ 50]	EpH4-VEGF % inhibition @ mg/kg ([4]; @ 75 mg/kg)	IC50 [6] [µM]	IC50 [7] [µM]	IC50 [8] [µM]	inhibition of fibroblast growth factor-induced corneal angiogenesis [9]
1.1	–	CN(C)c1ccc(C=C2C(=O)Nc3ccccc32)cc1 [SU4312, 3-(4-Dimethylaminobenzylidenyl)-2-indolinone]	36	154	63	56% @ 75 and 50% @ 75	–	–	–	–
6.6	87.4	COc1ccc(OC)c(C=C2C(=O)Nc3ccccc32)c1 [SU4793, 3-(2,5-Dimethoxybenzylidenyl)-2-indolinone]	–	3.4	–	–	–	–	–	–
–	–	Cc1ccc(-c2cc(C(F)(F)F)nn2-c2ccc(S(N)(=O)=O)cc2)cc1 [Celecoxib, celecoxib]	–	–	–	–	–	–	–	potent inhibition

Compound	IC50 [3] [µM]	IC50 [5] [µM]	IC50 [1] [µM]	IC50 [2] [µM]	EpH4-VEGF % inhibition @ mg/kg ([4]; @ 50 mg/kg) [% @ 50]	EpH4-VEGF % inhibition @ mg/kg ([4]; @ 75 mg/kg)	IC50 [6] [µM]	IC50 [7] [µM]	IC50 [8] [µM]	inhibition of fibroblast growth factor-induced corneal angiogenesis [9]
O=CN1CCN(c2ccc(C=C3C(=O)Nc4ccccc43)cc2)CC1 [SU4984, 3-[4-(4-Formylpiperazin-1-yl)benzylidenyl]-2-indolinone]	0.8	–	–	25.8	–	–	22.2	90.2	1.6	–
